A value given as a limit tells only on which side of the number the result lay.

This assay relates to Staphylococcus epidermidis. In words: Antimicrobial activity against Staphylococcus epidermidis ATCC 12228. The class given is functional.
`CCCCCCCCCCCC(O)C[C@H]1C[C@H](O)[C@@H](O)[C@@H](CO)N1` (stereo partly drawn) [BATZELLASIDE C] returned a minimal inhibitory concentration (MIC) of at most 6.3 µg/mL.
With `CCCCCCCCCCC(O)C[C@H]1C[C@H](O)[C@@H](O)[C@@H](CO)N1` (stereo partly drawn) [BATZELLASIDE A] the figure was at most 6.3 µg/mL.
On to `CCCCCCCCCC(O)C[C@H]1C[C@H](O)[C@@H](O)[C@@H](CO)N1` (stereo partly drawn) [BATZELLASIDE B], for which the MIC was at most 6.3 µg/mL.

For the origin of these results see ChEMBL document CHEMBL1142572, “A Madagascar Sponge Batzella sp. as a source of alkylated iminosugars” (2005).
